Values quoted from earlier work, collected in article PMC5857253 (Bioorganic chemistry, 2018).

Target: β-galactosidase (A. oryzae) (Aspergillus oryzae, UniProt Q2UCU3)
Conditions: methods described by Bartlett et al.

Chain of β-galactosidase (A. oryzae) (Q2UCU3 19-1005): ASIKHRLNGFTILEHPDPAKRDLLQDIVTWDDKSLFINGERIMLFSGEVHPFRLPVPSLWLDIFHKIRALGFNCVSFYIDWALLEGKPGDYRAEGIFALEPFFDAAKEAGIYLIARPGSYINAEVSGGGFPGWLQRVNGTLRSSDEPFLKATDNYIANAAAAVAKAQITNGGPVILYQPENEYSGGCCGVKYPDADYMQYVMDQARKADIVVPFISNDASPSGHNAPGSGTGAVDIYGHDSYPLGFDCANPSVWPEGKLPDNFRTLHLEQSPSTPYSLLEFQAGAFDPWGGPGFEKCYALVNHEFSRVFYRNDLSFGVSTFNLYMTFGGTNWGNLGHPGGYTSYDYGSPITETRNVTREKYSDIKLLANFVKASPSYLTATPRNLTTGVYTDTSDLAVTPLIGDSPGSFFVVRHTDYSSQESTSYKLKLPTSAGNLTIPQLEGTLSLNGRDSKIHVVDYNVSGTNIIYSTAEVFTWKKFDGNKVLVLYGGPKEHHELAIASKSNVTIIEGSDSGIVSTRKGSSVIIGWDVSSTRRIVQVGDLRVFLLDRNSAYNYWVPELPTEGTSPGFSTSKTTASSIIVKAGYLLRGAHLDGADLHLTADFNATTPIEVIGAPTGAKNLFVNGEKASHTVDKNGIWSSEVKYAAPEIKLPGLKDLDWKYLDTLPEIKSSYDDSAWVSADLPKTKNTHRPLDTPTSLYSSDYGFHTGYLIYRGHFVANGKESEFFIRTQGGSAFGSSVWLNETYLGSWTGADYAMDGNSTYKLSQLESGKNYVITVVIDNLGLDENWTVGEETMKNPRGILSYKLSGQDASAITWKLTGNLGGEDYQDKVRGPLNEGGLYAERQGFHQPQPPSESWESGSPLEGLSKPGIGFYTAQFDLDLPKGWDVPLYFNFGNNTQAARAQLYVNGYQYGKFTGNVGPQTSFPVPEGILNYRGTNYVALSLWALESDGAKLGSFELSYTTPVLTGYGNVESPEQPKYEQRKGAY

## Cc1ccc(C/N=C2\N[C@H](CO)[C@H](O)[C@H](O)[C@H]2O)cc1 [1a, p-methylbenzyl galactonoamidine]
  classification as putative transition state analog (TSA): characterized as a putative transition state analog
